Where two headings read alike, the source gives them in different places.
How the values were obtained:
[1] = system: Japanese patients with type 2 diabetes (T2DM); assay: 24-week Phase III placebo-controlled monotherapy study in Japanese patients with type 2 diabetes; type: in vivo, human; conditions: for HbA1c LSM Difference vs. Placebo, Week 24 / Change in HbA1c from baseline, Week 24 LS Mean (SE) / HbA1c LSM Difference vs. Placebo (SE), Week 24: 1000 mg BID
Method: A 24-Week Phase III, Randomized, Double-Blind, Placebo-Controlled, Monotherapy Study to Assess the Efficacy, Safety and Tolerability of Imeglimin Administered Orally in Japanese Patients with Type 2 Diabetes (T2DM)
A total of 213 subjects were randomized in a 1:1 ratio to receive either imeglimin (1000 mg BID) or placebo BID for 24 weeks, with 194 subjects completing the study without Investigational Medicinal Product (IMP) discontinuation. The primary objective of this study was to determine the change in HbA1c from baseline after 24 weeks of imeglimin treatment compared to placebo. Secondary endpoints of the trial included fasting plasma glucose along with other standard glycemic and non-glycemic parameters. Subjects were to have an eGFR of ≥50 mL/min/1.73 m^2 at Screening and ≥45 mL/min/1.73 m^2 at Pre-randomization.

[2] = Pharmacokinetics of imeglimin (dose proportionality, excretion pathway); type: in vivo
[3] = system: acute renal failure (ARF) rat model; conditions: for plasma glucose: normal rats
Method: The creatinine level, correlated with the degree of the renal function failure, was tested for each rat 7 days after the first injection of gentamicin. […] The creatinine level was determined on the Monarch Chemistry Systems using the IL Test creatinine in rat plasma samples. This monochromatic analysis is based on the formation of a red colored complex between creatinine and picric acid under alkaline conditions.

C[C@H]1N=C(N(C)C)N=C(N)N1 [imeglimin, (6R)—N^2, N^2,6-trimethyl-3,6-dihydro-1,3,5-triazine-2,4-diamine]
HbA1c LSM Difference vs. Placebo, Week 24 ([1]; CKD Stage 2 (eGFR = 60-90 mL/min/1.73 m^2)): −0.96%
Change in HbA1c from baseline, Week 24 LS Mean (SE) ([1]; CKD Stage 2 (eGFR = 60-90 mL/min/1.73 m^2), N 66): −0.82 (0.08) %
HbA1c LSM Difference vs. Placebo, Week 24 ([1]; CKD Stage 2 (eGFR = 60-90 mL/min/1.73 m^2), listed as Imeglimin): −0.96 (0.11) %
HbA1c LSM Difference vs. Placebo, Week 24 ([1]; CKD Stage 3a (eGFR < 60 mL/min/1.73 m^2)): −0.70%
Change in HbA1c from baseline, Week 24 LS Mean (SE) ([1]; CKD Stage 3a (eGFR < 60 mL/min/1.73 m^2), N 21): −0.66 (0.13) %
HbA1c LSM Difference vs. Placebo, Week 24 ([1]; CKD Stage 3a (eGFR < 60 mL/min/1.73 m^2), listed as Imeglimin): −0.70 (0.19) %
HbA1c LSM Difference vs. Placebo (SE), Week 24 ([1]; Normal eGFR (eGFR > 90 mL/min/1.73 m^2)): −0.59%
Change in HbA1c from baseline, Week 24 LS Mean (SE) ([1]; Normal eGFR (eGFR > 90 mL/min/1.73 m^2), N 11): −0.33 (0.20) %
HbA1c LSM Difference vs. Placebo (SE), Week 24 ([1]; Normal eGFR (eGFR > 90 mL/min/1.73 m^2), listed as Imeglimin): −0.59 (0.32) %
A1C lowering compared to placebo ([1]; pre-specified analysis, stage 2 and 3a CKD (eGFR <90 mL/min/1.73 m^2, n=178)): improvement in A1C lowering as compared to placebo
dose proportionality of exposures ([2]; 250 to 2000 mg range): less than dose proportional exposures
main excretion pathway ([2]; in vivo): renal elimination as the main excretion pathway
plasma glucose ([3]; 180 minutes, imeglimin and metformin 100 mg/h/kg, phenformin 50 mg/h/kg i.v.): 5.4 ± 0.4 mmol/L
plasma glucose ([3]; i.v. perfusion 100 mg/h/kg, 60 minutes (basal 7.6±0.4)): 6.5 ± 0.4 mmol/L
effect on plasma [HCO3−] ([3]; rat, in vivo): significantly decreased plasma [HCO3^−]vs. basal period but not vs. control group
effect on plasma lactate ([3]; rat, in vivo): did not significantly increase plasma lactate
effect on plasma lactate level ([3]; rat, in vivo): did not change plasma lactate level
plasma H+ concentration / metabolic acidosis signs ([3]; rat, in vivo): Metabolic acidosis signs with imeglimin treatment were not observed
plasma accumulation ([3]; rat, in vivo): plasma accumulation of metformin and imeglimin was observed
severe hypoglycemia ([3]; rat, in vivo): severe hypoglycemia was not observed
decrease in plasma glucose ([3]; rats with mild or high ARF): significant and time-dependent
